In patent US6737383B1, “Herbicidal oxadiazolidines” (priority 1999, dated 2004):

What was measured:
[1] = system: wheat; test: Test B pre/postemergence wheat; format: in vivo, Triticum aestivum
How it was run: (§1)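 Response is a visual 0-to-10 score relative to untreated plants, where 0 means no effect and 10 means complete control, taken twelve to sixteen days after application. Treatments went onto soil at planting and onto foliage of 1- to 4-leaf plants, using a surfactant-containing non-phytotoxic solvent.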

[2] = system: cocklebur; test: Test B pre/postemergence cocklebur; format: in vivo, Xanthium strumarium
How it was run: as §1

[3] = system: smallflower flatsedge; test: Test B flood test smallflower flatsedge; format: in vivo, Cyperus difformis
How it was run: (§2)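 Each value is a visual injury score relative to controls, with 10 meaning complete control and 0 no effect. Evaluation took place twelve to sixteen days after the 2-leaf-stage plants were treated and kept in the greenhouse.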

[4] = system: sugar beet; test: Test B pre/postemergence sugar beet; format: in vivo, Beta vulgaris
How it was run: as §1

[5] = system: wild oat; test: Test B pre/postemergence wild oat; format: in vivo, Avena fatua
How it was run: as §1

[6] = system: corn; test: Test B pre/postemergence corn; format: in vivo, Zea mays
How it was run: as §1

[7] = system: rape; test: Test B pre/postemergence rape; format: in vivo, Brassica napus
How it was run: as §1

[8] = system: rice; test: Test B flood test rice; format: in vivo, Oryza sativa
How it was run: as §2

[9] = system: giant foxtail; test: Test B pre/postemergence giant foxtail; format: in vivo, Setaria faberii
How it was run: as §1

[10] = system: morningglory; test: Test B pre/postemergence morningglory; format: in vivo, Ipomoea hederacea
How it was run: as §1

[11] = system: pigweed; test: Test B pre/postemergence pigweed; format: in vivo, Amaranthus retroflexus
How it was run: as §1

[12] = system: bedstraw; test: Test B pre/postemergence bedstraw; format: in vivo, Galium aparine; conditions: Postemergence
How it was run: as §1

[13] = system: velvetleaf; test: Test B pre/postemergence velvetleaf; format: in vivo, Abutilon theophrasti
How it was run: as §1

[14] = system: blackgrass; test: Test B pre/postemergence blackgrass; format: in vivo, Alopecurus myosuroides
How it was run: as §1

[15] = system: surinam grass; test: Test B pre/postemergence surinam grass; format: in vivo, Brachiaria decumbens
How it was run: as §1

[16] = system: soybean; test: Test B pre/postemergence soybean; format: in vivo, Glycine max
How it was run: as §1

[17] = Postemergence, Rate 250 g/ha, scale 0 to 10
[18] = Postemergence, Rate 500 g/ha, scale of 0 to 10 where 0 is no effect and 10 is complete control
[19] = Preemergence, Rate 62 g/ha, scale of 0 to 10 where 0 is no effect and 10 is complete control
[20] = Preemergence, Rate 125 g/ha, scale of 0 to 10 where 0 is no effect and 10 is complete control
[21] = Preemergence, Rate 250 g/ha, scale 0 to 10, 0 is no effect, 10 is complete control
[22] = Preemergence, Rate 500 g/ha, scale 0 to 10, 0 is no effect, 10 is complete control
[23] = Rate 62 g/ha, Postemergence, scale 0 to 10, 0 no effect, 10 complete control
[24] = Rate 125 g/ha, Postemergence, scale 0 to 10, 0 is no effect, 10 is complete control
[25] = Rate 62 g/ha, flood test species, Pre-emergence, visual evaluation after twelve to sixteen days
[26] = Rate 125 g/ha, under heading Pre-emergence, flood test species, visual evaluation after twelve to sixteen days
[27] = Rate 250 g/ha, Pre-emergence (flood test species), scale 0 to 10, 0 is no effect, 10 is complete control
[28] = Rate 500 g/ha, Pre-emergence, flood test species, scale 0 to 10 (0 no effect, 10 complete control)

CC(C)N(C(=O)n1oc(=O)n(CCl)c1=O)c1ccc(F)cc1F [Compound 437]
Wheat plant response rating [1, 17]: 0
Wheat plant response rating [1, 18]: 0
Plant response rating, Wheat [1, 19]: 0
Plant response rating, Wheat [1, 20]: 0
Wheat plant response rating [1, 21]: 0
Wheat plant response rating [1, 22]: 0
Wheat plant response rating [1, 23]: 0
Wheat plant response rating [1, 24]: 0
Cocklebur plant response rating [2, 17]: 0
Cocklebur plant response rating [2, 18]: 1
Plant response rating, Cocklebur [2, 19]: 0
Plant response rating, Cocklebur [2, 20]: 0
Cocklebur plant response rating [2, 21]: 0
Cocklebur plant response rating [2, 22]: 0
Cocklebur plant response rating [2, 23]: 0
Cocklebur plant response rating [2, 24]: 0
Plant response rating, S. Flatsedge (0 to 10 scale, 0 is no effect, 10 is complete control) [3, 25]: 0
S. Flatsedge plant response rating (0 to 10 scale, 0 is no effect, 10 is complete control) [3, 26]: 0
S. Flatsedge plant response rating [3, 27]: 0
S. Flatsedge plant response rating [3, 28]: 0
Sugarbeets plant response rating [4, 17]: 0
Sugarbeets plant response rating [4, 18]: 0
Plant response rating, Sugarbeets [4, 19]: 0
Plant response rating, Sugarbeets [4, 20]: 0
Sugarbeets plant response rating [4, 21]: 0
Sugarbeets plant response rating [4, 22]: 0
Sugarbeets plant response rating [4, 23]: 0
Sugarbeets plant response rating [4, 24]: 0
Wild oats plant response rating [5, 17]: 0
Wild oats plant response rating [5, 18]: 3
Plant response rating, Wild oats [5, 19]: 0
Plant response rating, Wild oats [5, 20]: 0
Wild oats plant response rating [5, 21]: 0
Wild oats plant response rating [5, 22]: 0
Wild oats plant response rating [5, 23]: 0
Wild oats plant response rating [5, 24]: 0
Corn plant response rating [6, 17]: 0
Corn plant response rating [6, 18]: 0
Plant response rating, Corn [6, 19]: 0
Plant response rating, Corn [6, 20]: 0
Corn plant response rating [6, 21]: 0
Corn plant response rating [6, 22]: 0
Corn plant response rating [6, 23]: 0
Corn plant response rating [6, 24]: 0
Rape plant response rating [7, 17]: 0
Rape plant response rating [7, 18]: 0
Plant response rating, Rape [7, 19]: 0
Plant response rating, Rape [7, 20]: 0
Rape plant response rating [7, 21]: 0
Rape plant response rating [7, 22]: 0
Rape plant response rating [7, 23]: 0
Rape plant response rating [7, 24]: 0
Plant response rating, Rice (0 to 10 scale, 0 is no effect, 10 is complete control) [8, 25]: 0
Rice plant response rating (0 to 10 scale, 0 is no effect, 10 is complete control) [8, 26]: 0
Rice plant response rating [8, 27]: 0
Rice plant response rating [8, 28]: 0
Giant foxtail plant response rating [9, 17]: 0
Giant foxtail plant response rating [9, 18]: 7
Plant response rating, Giant foxtail [9, 19]: 0
Plant response rating, Giant foxtail [9, 20]: 0
Giant foxtail plant response rating [9, 21]: 0
Giant foxtail plant response rating [9, 22]: 3
Giant foxtail plant response rating [9, 23]: 0
Giant foxtail plant response rating [9, 24]: 0
Morningglory plant response rating [10, 17]: 4
Morningglory plant response rating [10, 18]: 9
Plant response rating, Morningglory [10, 19]: 0
Plant response rating, Morningglory [10, 20]: 0
Morningglory plant response rating [10, 21]: 0
Morningglory plant response rating [10, 22]: 0
Morningglory plant response rating [10, 23]: 0
Morningglory plant response rating [10, 24]: 1
Redroot pigweed plant response rating [11, 17]: 0
Redroot pigweed plant response rating [11, 18]: 0
Plant response rating, Redroot pigweed [11, 19]: 0
Plant response rating, Redroot pigweed [11, 20]: 0
Redroot pigweed plant response rating [11, 21]: 0
Redroot pigweed plant response rating [11, 22]: 0
Redroot pigweed plant response rating [11, 23]: 0
Redroot pigweed plant response rating [11, 24]: 0
Bedstraw plant response rating ([12]; Rate 250 g/ha, scale 0 to 10): 0
Bedstraw plant response rating ([12]; Rate 62 g/ha, scale 0 to 10, 0 no effect, 10 complete control): 0
Bedstraw plant response rating ([12]; Rate 125 g/ha, scale 0 to 10, 0 is no effect, 10 is complete control): 0
Velvetleaf plant response rating [13, 17]: 0
Velvetleaf plant response rating [13, 18]: 0
Plant response rating, Velvetleaf [13, 19]: 0
Plant response rating, Velvetleaf [13, 20]: 0
Velvetleaf plant response rating [13, 21]: 0
Velvetleaf plant response rating [13, 22]: 0
Velvetleaf plant response rating [13, 23]: 0
Velvetleaf plant response rating [13, 24]: 0
Blackgrass plant response rating [14, 17]: 0
Blackgrass plant response rating [14, 18]: 0
Plant response rating, Blackgrass [14, 19]: 0
Plant response rating, Blackgrass [14, 20]: 0
Blackgrass plant response rating [14, 21]: 0
Blackgrass plant response rating [14, 22]: 0
Blackgrass plant response rating [14, 23]: 0
Blackgrass plant response rating [14, 24]: 0
B. signalgrass plant response rating ([15]; Postemergence, Rate 250 g/ha, scale 0 to 10, 0 no effect, 10 complete control): 0
B. signalgrass plant response rating [15, 18]: 0
Plant response rating, B. signalgrass [15, 19]: 0
Plant response rating, B. signalgrass [15, 20]: 0
B. signalgrass plant response rating [15, 21]: 0
B. signalgrass plant response rating [15, 22]: 0
B. signalgrass plant response rating [15, 23]: 0
B. signalgrass plant response rating [15, 24]: 0
Soybean plant response rating [16, 17]: 0
Soybean plant response rating [16, 18]: 2
Plant response rating, Soybean [16, 19]: 0
Plant response rating, Soybean [16, 20]: 0
Soybean plant response rating [16, 21]: 0
Soybean plant response rating [16, 22]: 0
Soybean plant response rating [16, 23]: 0
Soybean plant response rating [16, 24]: 0
